Values after ≈ are worked out from the molar mass of the structure shown. Values joined by “and” are separate entries in the source; they are usually repeats but may differ in a detail not shown here. Equal entries are not always repeated.
What was measured:
[1] = Wet ball milling: particle size and soluble fraction; format: physicochemical; details: aqueous with cosolvent or surfactant or cyclodextrin, thermodynamic from solid
Description: The effect of wet ball milling on Compound 1 particles size and solubility in Kolliphor® EL, Kolliphor® RH40, and tyloxopol s was assessed. […] Kolliphor® RH 40 appeared to be best wetting agent, with Kolliphor® EL also performing well.

[2] = Stability of Compound 1 on sterilization (steam, gamma irradiation); format: physicochemical
Description: The stability of Compound 1 when sterilized by steam (autoclaving) was assessed. […] Gamma irradiation was then assessed as an alternative sterilization technique. Samples of Compound 1 were irradiated with 10-20 kGy or 20-30 kGy of gamma irradiation.

[3] = Solubility of Compound 1 in aqueous buffers; format: physicochemical
Source text: 3-((3-(4-(2-(isobutylsulfonyl)phenoxy)-3-(trifluoromethyl)phenyl)-1,2,4-oxadiazol-5-yl)methyl)-5,5-dimethyl-1-(2-morpholinoethyl)imidazolidine-2,4-dione (“Compound 1”) is an LXR agonist having biological activity that makes the compound useful for treating ocular diseases such as MGD (see, e.g., Example 3). However, its physical properties make formulating Compound 1 for therapeutic use (e.g., in human subjects) difficult. Compound 1 is poorly water soluble, making it difficult to formulate compositions of Compound 1 with desired concentrations of Compound 1 for therapeutic use. […] Moreover, Compound 1 has a melting temperature of only 118° C., which makes heat sterilization of Compound 1 difficult. In spite of these challenges, formulations of Compound 1 which can be used, for example, in the treatment of ocular diseases and disorders such as dry eye disease and MGD, have been developed.

[4] = Stability of Compound 1 in different excipients, 3 months; format: physicochemical; details: for HPLC (% Remaining): initial purity 99.19%
Description: The stability of Compound 1 in different excipients was assessed.

rat meibum = assay: In vivo measurement of lowered meibum melting temperature; set-up: species or system Sprague Dawley rats; details: rats
Description: The lowering of rat meibum melting temperature by Compound 1 was measured in naive Sprague Dawley rats. The test animals were administered either vehicle, or a suspension of 1% of Compound 1, as eye drops twice a day for fourteen days. The rat meibum was collected after administration of the compounds and analyzed by differential scanning calorimetry to measure the melting point. The lowering of meibum melting point in rats administered Compound 1 was compared to the vehicle.
Melting properties of meibum were obtained using differential scanning calorimetry thermograms, recorded on a TA Discovery Q5000 (ThermoAnalytical). Samples were sealed in standard 40 μl aluminum pans and subjected to a heat-cool-heat cycle with melting temperatures being recorded on the second heating ramp. The samples were first heated to 150° C. at 30K/min then cooled −30° C. at 30K/min. Next, the sample was heated to 75° C. with an underlying heating rate of 2K/min, a period of modulation of 60 seconds and a temperature amplitude of modulation of 1° C. Dry N2 gas, at a flow rate of 50 mL/min was used to purge the DSC equipment during the measurement. Onset of melting and peak temperatures were recorded with peak temperature quoted as the melting point.
Results from the assay are shown Table 3 and in FIG. 4. Results were analyzed using an unpaired t test with Welch's correction.

[5] = Solubility of Compound 1 in different excipients; format: physicochemical
Description: The solubility of Compound 1 in different excipients was assessed.

[6] = 0.5% Kolliphor ® EL/0.5% Carbopol ® 974P, 5° C.
[7] = 0.5% Kolliphor ® EL/0.5% Carbopol ® 974P, 25° C.
[8] = 0.5% Kolliphor ® EL/0.5% Carbopol ® 974P, 40° C.
[9] = 0.5% Kolliphor ® EL/0.5% HEC, 5° C.
[10] = 0.5% Kolliphor ® EL/0.5% HEC, 25° C.
[11] = 0.5% Kolliphor ® EL/0.5% HEC, 40° C.
[12] = 0.5% Kolliphor ® RH40/0.5% Carbopol ® 974P, 5° C.
[13] = 0.5% Kolliphor ® RH40/0.5% Carbopol ® 974P, 25° C.
[14] = 0.5% Kolliphor ® RH40/0.5% Carbopol ® 974P, 40° C.
[15] = 0.5% Kolliphor ® RH40/0.5% HEC, 5° C.
[16] = 0.5% Kolliphor ® RH40/0.5% HEC, 25° C.
[17] = 0.5% Kolliphor ® RH40/0.5% HEC, 40° C.

## CC(C)CS(=O)(=O)c1ccccc1Oc1ccc(-c2noc(CN3C(=O)N(CCN4CCOCC4)C(C)(C)C3=O)n2)cc1C(F)(F)F [Compound 1, 3-((3-(4-(2-(isobutylsulfonyl)phenoxy)-3-(trifluoromethyl)phenyl)-1,2,4-oxadiazol-5-yl)methyl)-5,5-dimethyl-1-(2-morpholinoethyl)imidazolidine-2,4-dione]
[1]; 0.25% Tyloxapol @ 24 hr, 3 mm beads
  solubility at 24 h: 15 µg/mL (≈ 22.1 µM)
[1]; 0.5% Tyloxapol @ 24 hr, 3 mm beads
  solubility at 24 h: 76 µg/mL (≈ 112 µM)
[1]; 1% Kolliphor ® EL @ 24 hr, 3 mm beads
  solubility at 24 h: 270 µg/mL (≈ 397 µM)
[1]; 1% Kolliphor ® RH-40 @ 24 hr, 3 mm beads
  solubility at 24 h: 344 µg/mL (≈ 506 µM)
[1]; 2% Kolliphor ® EL @ 24 hr, 3 mm beads
  solubility at 24 h: 528 µg/mL (≈ 777 µM)
[1]; 2% Kolliphor ® RH40, @ 24 hr, 1 mm beads
  solubility at 24 h: 650 µg/mL (≈ 956 µM)
[1]; 2% Kolliphor ® RH-40 @ 24 hr, 3 mm beads
  solubility at 24 h: 669 µg/mL (≈ 984 µM)
[1]; 4% Kolliphor ® RH40 @ 24 hr, 1 mm beads
  solubility at 24 h: 1200 µg/mL (≈ 1760 µM)
[2]; 10-20 kGy, samples 7-9
  HPLC Assay (% Remaining) Average: 98.23 ± 0.01%
[2]; 20-30 kGy, samples 10-12
  HPLC Assay (% Remaining) Average: 98.14 ± 0.03%
[2]; gamma irradiated, 10-20 kGy or 20-30 kGy
  degradation of Compound 1 by HPLC: less than 0.5%
[2]; gamma irradiation 10-20 kGy
  Appearance: White powder
  HPLC Assay (% Remaining): 98.23% and 98.24% and 98.22%
  XRPD (2-Theta): Form A
[2]; gamma irradiation 20-30 kGy
  Appearance: White powder
  HPLC Assay (% Remaining): 98.17% and 98.13% and 98.11%
  XRPD (2-Theta): Form A
[2]; non-irradiated control
  Appearance: White powder
  HPLC Assay (% Remaining): 98.51% and 98.48% and 98.44% and 98.46% and 98.49% and 98.50%
  XRPD (2-Theta): Form A
[2]; non-irradiated control, samples 1-6
  HPLC Assay (% Remaining) Average: 98.48 ± 0.03%
[2]; steam (autoclaving), data not shown
  degradation on steam sterilization: Significant degradation
[3]; 10 mM acetate buffer, aqueous buffer, 10 mM acetate, pH 4, read-out: solubility
  solubility: 25 µg/mL (≈ 36.8 µM)
[3]; 10 mM acetate buffer, aqueous buffer, 10 mM acetate, pH 5, read-out: solubility
  solubility: 1 µg/mL (≈ 1.47 µM)
[3]; 10 mM phosphate buffer at pH 7
  solubility: limit of quantification
[4]; 0.5% Carbopol ® 974P, 5° C.
  XRPD (2-Theta): Form
  HPLC (% Remaining): 99.19%
[4]; 0.5% Carbopol ® 974P, 25° C.
  XRPD (2-Theta): Form
  HPLC (% Remaining): 99.16%
[4]; 0.5% Carbopol ® 974P, 40° C.
  XRPD (2-Theta): Form
  HPLC (% Remaining): 99.14%
[4]; 0.5% HEC, 5° C.
  XRPD (2-Theta): Form
  HPLC (% Remaining): 99.18%
[4]; 0.5% HEC, 25° C.
  XRPD (2-Theta): Form
  HPLC (% Remaining): 99.20%
[4]; 0.5% HEC, 40° C.
  XRPD (2-Theta): Form
  HPLC (% Remaining): 99.17%
[4]; 0.5% Kolliphor ® EL, 5° C.
  XRPD (2-Theta): Form
  HPLC (% Remaining): 99.18%
[4]; 0.5% Kolliphor ® EL, 25° C.
  XRPD (2-Theta): Form
  HPLC (% Remaining): 99.18%
[4]; 0.5% Kolliphor ® EL, 40° C.
  XRPD (2-Theta): Form
  HPLC (% Remaining): 99.00%
[4]; [6]
  XRPD (2-Theta): Form
  HPLC (% Remaining): 99.18%
[4]; [7]
  XRPD (2-Theta): Form
  HPLC (% Remaining): 99.02%
[4]; [8]
  XRPD (2-Theta): Form
  HPLC (% Remaining): 97.89%
[4]; [9]
  XRPD (2-Theta): Form
  HPLC (% Remaining): 99.19%
[4]; [10]
  XRPD (2-Theta): Form
  HPLC (% Remaining): 99.02%
[4]; [11]
  XRPD (2-Theta): Form
  HPLC (% Remaining): 98.94%
[4]; 0.5% Kolliphor ® RH40, 5° C.
  XRPD (2-Theta): Form
  HPLC (% Remaining): 99.18%
[4]; 0.5% Kolliphor ® RH40, 25° C.
  XRPD (2-Theta): Form
  HPLC (% Remaining): 99.18%
[4]; 0.5% Kolliphor ® RH40, 40° C.
  XRPD (2-Theta): Form
  HPLC (% Remaining): 99.17%
[4]; [12]
  XRPD (2-Theta): Form
  HPLC (% Remaining): 99.18%
[4]; [13]
  XRPD (2-Theta): Form
  HPLC (% Remaining): 99.17%
[4]; [14]
  XRPD (2-Theta): Form
  HPLC (% Remaining): 98.87%
[4]; [15]
  XRPD (2-Theta): Form
  HPLC (% Remaining): 99.19%
[4]; [16]
  XRPD (2-Theta): Form
  HPLC (% Remaining): 99.18%
[4]; [17]
  XRPD (2-Theta): Form
  HPLC (% Remaining): 99.18%
Rat meibum; 1% suspension eye drops twice a day for fourteen days, DSC peak temperature, in °C
  Mean ± SEM meibum melting temperature: 28.08 ± 0.2945
Rat meibum; versus vehicle, 1% suspension twice a day, fourteen days, P value <0.0001
  Change of Tm: −2.181 ± 0.3731
[5]; 0.5% Tween ® 80 pH 7
  Physical form: No change, Form A
[5]; 0.5% Tyloxapol pH 7
  Physical form: No change, Form A
[5]; 5% HP-β-CD pH 5
  Physical form: No change, Form A
[5]; 5% HP-β-CD pH 6
  Physical form: No change, Form A
[5]; 5% HP-β-CD pH 7
  Physical form: No change, Form A
[5]; 5% HP-γ-CD pH 7
  Physical form: No change, Form A
[5]; 5% Kolliphor ® EL pH 5
  Physical form: No change, Form A
[5]; 5% Kolliphor ® EL pH 6
  Physical form: No change, Form A
[5]; 5% Kolliphor ® EL pH 7
  Physical form: No change, Form A
[5]; 5% PEG400 pH 7
  Physical form: No change, Form A
[5]; 5% PVP pH 7
  Physical form: No change, Form A
[5]; 5% Polyvinylpyrrolidone (PVP) pH 7, measured pH 6.97
  Compound 1 solubility: <LOQ
[5]; 10% transcutol pH 7
  Physical form: No change, Form A
[5]; 10% transcutol pH 7, measured pH 6.99
  Compound 1 solubility: <LOQ
[5]; aqueous with cosolvent or surfactant or cyclodextrin, thermodynamic from solid, 0.5% Tween ® 80 pH 7, measured pH 7.1
  solubility: 78 µg/mL (≈ 115 µM)
[5]; aqueous with cosolvent or surfactant or cyclodextrin, thermodynamic from solid, 0.5% Tyloxapol pH 7
  solubility: 34 µg/mL (≈ 50 µM)
[5]; aqueous with cosolvent or surfactant or cyclodextrin, thermodynamic from solid, 5% HP-β-CD pH 5, measured pH 5.28
  solubility: 180 µg/mL (≈ 265 µM)
[5]; aqueous with cosolvent or surfactant or cyclodextrin, thermodynamic from solid, 5% HP-β-CD pH 6, measured pH 6.13
  solubility: 70 µg/mL (≈ 103 µM)
[5]; aqueous with cosolvent or surfactant or cyclodextrin, thermodynamic from solid, 5% HP-β-CD pH 7, measured pH 7.03
  solubility: 50 µg/mL (≈ 73.6 µM)
[5]; aqueous with cosolvent or surfactant or cyclodextrin, thermodynamic from solid, 5% HP-γ-CD pH 7, measured pH 6.9
  solubility: 225 µg/mL (≈ 331 µM)
[5]; aqueous with cosolvent or surfactant or cyclodextrin, 5% Kolliphor ® EL pH 5, measured pH 5.34
  solubility: 1010 µg/mL (≈ 1490 µM)
[5]; aqueous with cosolvent or surfactant or cyclodextrin, 5% Kolliphor ® EL pH 6, measured pH 6.16
  solubility: 740 µg/mL (≈ 1090 µM)
[5]; aqueous with cosolvent or surfactant or cyclodextrin, 5% Kolliphor ® EL pH 7, measured pH 7.01
  solubility: 690 µg/mL (≈ 1020 µM)
[5]; aqueous with cosolvent or surfactant or cyclodextrin, 5% Kolliphor ® RH40, measured pH 6.91
  solubility: 443 µg/mL (≈ 652 µM)
[5]; pH 7.1, aqueous with cosolvent or surfactant or cyclodextrin, 5% PEG400 pH 7, measured pH 7.10
  solubility: 3 µg/mL (≈ 4.41 µM)

— patent publication US20240238305A1, “FORMULATIONS OF 3-((3-(4-(2-(ISOBUTYLSULFONYL)PHENOXY)-3-(TRIFLUOROMETHYL)PHENYL)-1,2,4-OXADIAZOL-5-YL)METHYL)-5,5-DIMETHYL-1-(2-MORPHOLINOETHYL)IMIDAZOLIDINE-2,4-DIONE” (Novartis AG, priority 2021, published 2024)
